Source: patent US10168342B2, “Lipid probes and uses thereof” (THE SCRIPPS RESEARCH INSTITUTE, priority 2015, dated 2019)
Where two headings read alike, the source gives them in different places.

Key:
[1] = target: AEA-DA lipid probe targets in Neuro2a cells (Mus musculus, UniProt P57716)
[2] = target: T1, AEA-DA lipid probe targets in Neuro2a cells (Mus musculus, UniProt Q91ZV0)
T1 sequence (Q91ZV0 23-1396): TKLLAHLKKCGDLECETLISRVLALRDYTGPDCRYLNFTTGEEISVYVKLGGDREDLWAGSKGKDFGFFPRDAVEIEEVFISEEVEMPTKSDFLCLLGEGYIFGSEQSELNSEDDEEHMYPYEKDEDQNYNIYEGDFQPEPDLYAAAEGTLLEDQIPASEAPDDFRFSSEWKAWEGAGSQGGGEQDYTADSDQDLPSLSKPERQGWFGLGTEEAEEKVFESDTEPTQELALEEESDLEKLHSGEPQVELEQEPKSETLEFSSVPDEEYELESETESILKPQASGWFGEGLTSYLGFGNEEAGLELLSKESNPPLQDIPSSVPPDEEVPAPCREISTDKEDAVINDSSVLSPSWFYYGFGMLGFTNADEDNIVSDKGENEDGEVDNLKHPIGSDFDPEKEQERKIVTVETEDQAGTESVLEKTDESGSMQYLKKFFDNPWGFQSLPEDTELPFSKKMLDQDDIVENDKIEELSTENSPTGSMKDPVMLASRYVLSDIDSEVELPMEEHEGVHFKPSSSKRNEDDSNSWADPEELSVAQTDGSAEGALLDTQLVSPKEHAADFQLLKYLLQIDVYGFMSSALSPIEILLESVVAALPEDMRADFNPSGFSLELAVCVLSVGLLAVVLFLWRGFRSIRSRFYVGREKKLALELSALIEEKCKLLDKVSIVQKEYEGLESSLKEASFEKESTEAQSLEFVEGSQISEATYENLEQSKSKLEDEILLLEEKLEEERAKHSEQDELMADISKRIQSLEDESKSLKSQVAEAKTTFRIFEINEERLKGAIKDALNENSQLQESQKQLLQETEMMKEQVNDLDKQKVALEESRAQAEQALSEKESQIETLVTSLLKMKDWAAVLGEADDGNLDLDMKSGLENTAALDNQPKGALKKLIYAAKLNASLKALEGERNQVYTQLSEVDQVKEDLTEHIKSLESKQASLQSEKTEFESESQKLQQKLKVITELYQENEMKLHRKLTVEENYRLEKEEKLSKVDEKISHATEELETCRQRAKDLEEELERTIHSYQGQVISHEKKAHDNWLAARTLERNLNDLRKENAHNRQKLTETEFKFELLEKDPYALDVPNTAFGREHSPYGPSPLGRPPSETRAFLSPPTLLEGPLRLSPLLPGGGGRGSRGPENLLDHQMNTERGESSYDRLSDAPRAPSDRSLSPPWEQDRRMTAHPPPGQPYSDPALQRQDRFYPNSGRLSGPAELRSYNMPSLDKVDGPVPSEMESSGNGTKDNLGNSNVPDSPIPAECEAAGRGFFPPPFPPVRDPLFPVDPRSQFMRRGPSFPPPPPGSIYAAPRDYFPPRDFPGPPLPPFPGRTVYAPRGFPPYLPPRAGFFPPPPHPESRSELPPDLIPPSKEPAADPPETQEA

[3] = target: AEA-DA lipid probe targets in Neuro2a cells (Mus musculus, UniProt Q791T5)
[4] = target: AEA-DA lipid probe targets in Neuro2a cells (Mus musculus, UniProt Q62351)
[5] = target: T2, AEA-DA lipid probe targets in Neuro2a cells (Mus musculus, UniProt Q9R1J0); details: for SILAC ratio, NSDHL (Q15738): Neuro2a cells, AEA-DA probe
T2 sequence (Q9R1J0 1-362): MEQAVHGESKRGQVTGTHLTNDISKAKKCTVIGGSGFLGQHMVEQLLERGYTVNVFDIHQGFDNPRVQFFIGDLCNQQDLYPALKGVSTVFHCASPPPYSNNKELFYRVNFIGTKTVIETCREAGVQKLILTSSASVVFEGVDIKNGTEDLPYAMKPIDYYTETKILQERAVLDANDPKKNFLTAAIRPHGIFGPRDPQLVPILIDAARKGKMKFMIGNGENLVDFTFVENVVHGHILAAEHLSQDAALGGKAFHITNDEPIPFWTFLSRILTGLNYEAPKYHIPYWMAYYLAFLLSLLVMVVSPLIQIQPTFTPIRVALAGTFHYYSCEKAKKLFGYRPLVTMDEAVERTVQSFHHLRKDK

[6] = target: AEA-DA lipid probe targets in Neuro2a cells (Mus musculus, UniProt Q60715)
[7] = target: T3, AEA-DA lipid probe targets in Neuro2a cells (Mus musculus, UniProt Q9CQM2)
T3 sequence (Q9CQM2 1-212): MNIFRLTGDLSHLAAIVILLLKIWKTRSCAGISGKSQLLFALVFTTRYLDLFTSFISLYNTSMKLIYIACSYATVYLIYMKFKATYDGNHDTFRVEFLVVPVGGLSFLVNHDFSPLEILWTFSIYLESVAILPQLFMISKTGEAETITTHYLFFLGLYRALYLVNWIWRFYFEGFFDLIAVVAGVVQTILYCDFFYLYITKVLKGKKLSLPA

[8] = target: T4, AEA-DA lipid probe targets in Neuro2a cells (Mus musculus, UniProt Q8K2C9)
T4 sequence (Q8K2C9 1-362): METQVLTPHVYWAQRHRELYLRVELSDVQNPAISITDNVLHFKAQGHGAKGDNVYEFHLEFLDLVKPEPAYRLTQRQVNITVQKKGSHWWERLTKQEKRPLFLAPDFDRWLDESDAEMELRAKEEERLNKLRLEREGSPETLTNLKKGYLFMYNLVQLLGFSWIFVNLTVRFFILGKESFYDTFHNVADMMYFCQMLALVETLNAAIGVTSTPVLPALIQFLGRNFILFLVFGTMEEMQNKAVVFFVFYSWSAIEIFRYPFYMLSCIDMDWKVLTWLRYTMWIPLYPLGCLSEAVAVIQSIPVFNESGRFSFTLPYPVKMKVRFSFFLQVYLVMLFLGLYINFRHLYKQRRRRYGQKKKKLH

Sequence of AEA-DA lipid probe targets in Neuro2a cells (Mus musculus, UniProt P57716) (P57716 28-708): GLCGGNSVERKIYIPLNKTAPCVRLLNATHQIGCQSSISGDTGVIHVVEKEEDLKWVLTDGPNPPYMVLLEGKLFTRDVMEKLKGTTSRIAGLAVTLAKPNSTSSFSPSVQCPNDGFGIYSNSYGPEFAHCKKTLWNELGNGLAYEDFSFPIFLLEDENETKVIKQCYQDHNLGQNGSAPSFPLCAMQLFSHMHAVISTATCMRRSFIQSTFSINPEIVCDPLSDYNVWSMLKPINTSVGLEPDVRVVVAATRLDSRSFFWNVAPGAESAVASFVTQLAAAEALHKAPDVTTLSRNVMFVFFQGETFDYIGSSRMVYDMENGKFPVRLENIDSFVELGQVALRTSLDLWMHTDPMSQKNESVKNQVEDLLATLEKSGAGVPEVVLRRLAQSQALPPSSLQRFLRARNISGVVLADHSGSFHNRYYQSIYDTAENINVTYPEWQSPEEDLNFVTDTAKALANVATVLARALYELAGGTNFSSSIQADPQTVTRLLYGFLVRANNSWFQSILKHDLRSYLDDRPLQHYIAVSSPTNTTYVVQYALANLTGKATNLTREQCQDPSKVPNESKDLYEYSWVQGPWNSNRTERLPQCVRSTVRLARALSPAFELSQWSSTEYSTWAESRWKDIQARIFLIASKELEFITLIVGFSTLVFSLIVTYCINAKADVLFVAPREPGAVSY
Sequence of AEA-DA lipid probe targets in Neuro2a cells (Mus musculus, UniProt Q62351) (Q62351 whole entry): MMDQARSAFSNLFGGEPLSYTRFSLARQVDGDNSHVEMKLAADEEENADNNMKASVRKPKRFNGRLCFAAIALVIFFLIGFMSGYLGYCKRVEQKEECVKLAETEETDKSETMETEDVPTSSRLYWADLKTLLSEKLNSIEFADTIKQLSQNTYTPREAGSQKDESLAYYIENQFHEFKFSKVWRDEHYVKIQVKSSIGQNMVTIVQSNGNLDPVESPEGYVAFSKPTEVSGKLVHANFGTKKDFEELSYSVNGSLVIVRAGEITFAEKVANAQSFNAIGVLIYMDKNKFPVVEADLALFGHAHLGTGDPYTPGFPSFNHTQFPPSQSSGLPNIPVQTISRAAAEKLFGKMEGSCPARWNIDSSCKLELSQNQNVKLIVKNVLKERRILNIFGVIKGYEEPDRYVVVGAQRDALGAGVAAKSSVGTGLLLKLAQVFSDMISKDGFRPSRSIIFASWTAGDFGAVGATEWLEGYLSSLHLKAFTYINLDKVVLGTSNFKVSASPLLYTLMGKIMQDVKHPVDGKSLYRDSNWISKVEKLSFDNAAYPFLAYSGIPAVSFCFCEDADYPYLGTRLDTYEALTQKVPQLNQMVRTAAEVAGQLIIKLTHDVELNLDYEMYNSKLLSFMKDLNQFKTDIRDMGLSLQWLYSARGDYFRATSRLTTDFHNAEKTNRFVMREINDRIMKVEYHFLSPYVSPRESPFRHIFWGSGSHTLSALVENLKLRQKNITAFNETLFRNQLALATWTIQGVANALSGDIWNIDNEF
Sequence of AEA-DA lipid probe targets in Neuro2a cells (Mus musculus, UniProt Q791T5) (Q791T5 whole entry): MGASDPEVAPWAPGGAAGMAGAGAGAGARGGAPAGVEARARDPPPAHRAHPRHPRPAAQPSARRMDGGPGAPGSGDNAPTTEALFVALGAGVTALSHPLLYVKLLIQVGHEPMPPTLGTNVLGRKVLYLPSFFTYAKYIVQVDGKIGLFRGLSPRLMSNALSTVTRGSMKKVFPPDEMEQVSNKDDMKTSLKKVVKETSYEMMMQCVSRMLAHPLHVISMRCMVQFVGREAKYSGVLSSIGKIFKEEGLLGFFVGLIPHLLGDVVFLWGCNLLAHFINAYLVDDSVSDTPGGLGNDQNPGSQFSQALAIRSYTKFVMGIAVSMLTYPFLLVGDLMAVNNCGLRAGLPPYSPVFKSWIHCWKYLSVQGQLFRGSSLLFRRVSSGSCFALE
Sequence of AEA-DA lipid probe targets in Neuro2a cells (Mus musculus, UniProt Q60715) (Q60715 18-534): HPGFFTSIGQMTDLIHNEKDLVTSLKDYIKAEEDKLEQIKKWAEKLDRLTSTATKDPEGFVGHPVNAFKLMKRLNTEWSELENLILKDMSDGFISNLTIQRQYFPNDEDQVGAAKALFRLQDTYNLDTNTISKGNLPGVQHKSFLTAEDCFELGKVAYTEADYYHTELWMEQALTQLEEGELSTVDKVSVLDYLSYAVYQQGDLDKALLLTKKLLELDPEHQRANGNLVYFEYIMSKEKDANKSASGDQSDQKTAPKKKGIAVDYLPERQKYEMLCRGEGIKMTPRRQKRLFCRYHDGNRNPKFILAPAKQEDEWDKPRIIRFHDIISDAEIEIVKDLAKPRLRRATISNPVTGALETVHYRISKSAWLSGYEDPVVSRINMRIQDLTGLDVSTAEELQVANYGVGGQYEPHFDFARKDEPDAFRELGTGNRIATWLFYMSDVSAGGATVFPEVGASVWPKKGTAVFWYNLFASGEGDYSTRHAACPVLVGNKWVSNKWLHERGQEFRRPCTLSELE

Q: With `CCCCC/C=C\C/C=C\C/C=C\C/C=C\CCCC(=O)NCCO` [AEA, anandamide, reference compound] as the compound, how does the “SILAC ratio Ncstn” value ([1]; competitor 200 μM) read?
A: 1.6

Q: And the “SILAC ratio, Ctage5” value ([2]; competitor 200 μM)?
A: 2.3

Q: What about the “SILAC ratio Mtch1” value ([3]; competitor 200 μM) of the same compound?
A: 1.4

Q: And the “SILAC ratio Tfrc” value ([4]; competitor 200 μM)?
A: 1.0

Q: And the “SILAC ratio, NSDHL (Q15738)” value ([5]; competitor 200 μM)?
A: 2.0

Q: What about the “SILAC ratio, Nsdhl” value ([5]; competitor 200 μM) of the same compound?
A: 2.0

Q: What about the “SILAC ratio P4ha1” value ([6]; competitor 200 μM) of the same compound?
A: 1.0

Q: What about the “SILAC ratio, Kdelr2” value ([7]; competitor 200 μM) of the same compound?
A: 1.4

Q: And the “SILAC ratio ptplad1” value ([8]; competitor 200 μM)?
A: 1.8

Q: With `O=C(/C=C/c1cccnc1)NCCCCC1CCN(C(=O)c2ccccc2)CC1` [FK-866, reference compound] as the compound, how does the “SILAC ratio Ncstn” value ([1]; competitor 25 μM) read?
A: 1.1

Q: And the “SILAC ratio, Ctage5” value ([2]; competitor 25 μM)?
A: 1.1

Q: And the “SILAC ratio Mtch1” value ([3]; competitor 25 μM)?
A: 1.0

Q: And the “SILAC ratio Tfrc” value ([4]; competitor 25 μM)?
A: 1.1

Q: What about the “SILAC ratio, NSDHL (Q15738)” value ([5]; competitor 25 μM) of the same compound?
A: 1.3

Q: And the “SILAC ratio, Nsdhl” value ([5]; competitor 25 μM)?
A: 1.3

Q: And the “SILAC ratio P4ha1” value ([6]; competitor 25 μM)?
A: 1.1

Q: What about the “SILAC ratio, Kdelr2” value ([7]; competitor 25 μM) of the same compound?
A: 1.2

Q: And the “SILAC ratio ptplad1” value ([8]; competitor 25 μM)?
A: 1.2

Q: What does the source list for `CN1CCN(C(=O)c2c(-c3ccccc3)c3cc([N+](=O)[O-])ccc3n2C)CC1` [KML110, (1-Methyl-5-nitro-3-phenyl-1H-indol-2-yl)(4-methylpiperazin-1-yl)methanone]?
A: SILAC ratio Ncstn ([1]; competitor 25 μM): 1.3; SILAC ratio, Ctage5 ([2]; competitor 25 μM): 1.4; SILAC ratio Mtch1 ([3]; competitor 25 μM): 1.2; SILAC ratio Tfrc ([4]; competitor 25 μM): 1.1; SILAC ratio, Nsdhl ([5]; competitor 25 μM): 1.7; SILAC ratio, Kdelr2 ([7]; competitor 25 μM): 1.3; SILAC ratio ptplad1 ([8]; competitor 25 μM): 1.7

Q: Which “SILAC ratio Ncstn” value ([1]; competitor 10 μM) does the source give for `CN1CCN(C(=O)c2[nH]c3ccc([N+](=O)[O-])cc3c2-c2ccccc2)CC1` [MJN228, (4-Methylpiperazin-1-yl)(5-nitro-3-phenyl-1H-indol-2-yl)methanone] here?
A: 1.3

Q: What about the “SILAC ratio Ncstn” value ([1]; competitor 25 μM) of the same compound?
A: 1.6

Q: What about the “SILAC ratio Ncstn” value ([1]; competitor 50 μM) of the same compound?
A: 1.2

Q: And the “SILAC ratio Ncstn” value ([1]; competitor 100 μM)?
A: 1.8

Q: And the “SILAC ratio, Ctage5” value ([2]; competitor 10 μM)?
A: 1.1

Q: What about the “SILAC ratio, Ctage5” value ([2]; competitor 25 μM) of the same compound?
A: 1.3

Q: What about the “SILAC ratio, Ctage5” value ([2]; competitor 50 μM) of the same compound?
A: 1.5

Q: What about the “SILAC ratio, Ctage5” value ([2]; competitor 100 μM) of the same compound?
A: 1.7

Q: What about the “SILAC ratio Mtch1” value ([3]; competitor 10 μM) of the same compound?
A: 1.1

Q: And the “SILAC ratio Mtch1” value ([3]; competitor 25 μM)?
A: 1.2

Q: What about the “SILAC ratio Mtch1” value ([3]; competitor 50 μM) of the same compound?
A: 1.0

Q: And the “SILAC ratio Mtch1” value ([3]; competitor 100 μM)?
A: 1.2

Q: What about the “SILAC ratio Tfrc” value ([4]; competitor 10 μM) of the same compound?
A: 1.1

Q: And the “SILAC ratio Tfrc” value ([4]; competitor 25 μM)?
A: 1.0

Q: What about the “SILAC ratio Tfrc” value ([4]; competitor 50 μM) of the same compound?
A: 1.0

Q: What about the “SILAC ratio Tfrc” value ([4]; competitor 100 μM) of the same compound?
A: 1.0

Q: What about the “SILAC ratio, NSDHL (Q15738)” value ([5]; competitor 25 μM) of the same compound?
A: 2.3

Q: What about the “SILAC ratio, Nsdhl” value ([5]; competitor 10 μM) of the same compound?
A: 1.7

Q: And the “SILAC ratio, Nsdhl” value ([5]; competitor 25 μM)?
A: 2.3

Q: What about the “SILAC ratio, Nsdhl” value ([5]; competitor 50 μM) of the same compound?
A: 3.0

Q: And the “SILAC ratio, Nsdhl” value ([5]; competitor 100 μM)?
A: 4.0

Q: And the “SILAC ratio P4ha1” value ([6]; competitor 10 μM)?
A: 1.3

Q: And the “SILAC ratio, Kdelr2” value ([7]; competitor 10 μM)?
A: 1.2

Q: And the “SILAC ratio, Kdelr2” value ([7]; competitor 25 μM)?
A: 1.2

Q: And the “SILAC ratio, Kdelr2” value ([7]; competitor 50 μM)?
A: 1.3

Q: What about the “SILAC ratio, Kdelr2” value ([7]; competitor 100 μM) of the same compound?
A: 1.8

Q: What about the “SILAC ratio ptplad1” value ([8]; competitor 10 μM) of the same compound?
A: 1.3

Q: And the “SILAC ratio ptplad1” value ([8]; competitor 25 μM)?
A: 1.7

Q: What about the “SILAC ratio ptplad1” value ([8]; competitor 50 μM) of the same compound?
A: 1.9

Q: And the “SILAC ratio ptplad1” value ([8]; competitor 100 μM)?
A: 2.3

Q: `C=CCN(C)CCCCCCOc1ccc(C(=O)c2ccc(Br)cc2)c(F)c1` [Ro 48-8071, reference compound] was tested. Which “SILAC ratio Ncstn” value ([1]; competitor 25 μM) did it give?
A: 1.0

Q: And the “SILAC ratio, Ctage5” value ([2]; competitor 25 μM)?
A: 1.0

Q: And the “SILAC ratio Mtch1” value ([3]; competitor 25 μM)?
A: 0.9

Q: What about the “SILAC ratio Tfrc” value ([4]; competitor 25 μM) of the same compound?
A: 0.8

Q: What about the “SILAC ratio, NSDHL (Q15738)” value ([5]; competitor 25 μM) of the same compound?
A: 1.3

Q: And the “SILAC ratio, Nsdhl” value ([5]; competitor 25 μM)?
A: 1.3

Q: What about the “SILAC ratio P4ha1” value ([6]; competitor 25 μM) of the same compound?
A: 1.1

Q: What about the “SILAC ratio, Kdelr2” value ([7]; competitor 25 μM) of the same compound?
A: 0.9

Q: What about the “SILAC ratio ptplad1” value ([8]; competitor 25 μM) of the same compound?
A: 1.4
